Measurements published in the supplement of paper PMC8671470.
Where a name gives a salt, the structure may show the parent alone.

test system: HL-60; assay: cell viability (% survival relative to DMSO control); higher = less cytotoxic; conditions: drug1 concentration 1 nM; drug2 concentration 5000 nM; 72 h
Experimental: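 8x8 drug-combination matrices (0-5000 nM; rosiglitazone and lestaurtinib 0-1000 nM) were run in HL-60 cells for 72 h with a CellTiter-Glo read-out. Survival is normalised to DMSO and 10 µM bortezomib and clipped at 100%. Bliss synergy was analysed in SynergyFinder.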

With CN(CCOc1ccc(Cc2sc(O)nc2O)cc1)c1ccccn1 [Rosiglitazone] + CC(C)(Cc1ccccc1)NCC(O)c1ccc(O)c(NS(C)(=O)=O)c1 [Zinterol hydrochloride] as the molecule, how does the cell viability read?
The cell viability was 59.8%.

With CN(CCOc1ccc(Cc2sc(O)nc2O)cc1)c1ccccn1 [Rosiglitazone] + c1cc(-c2cnn3cc(-c4ccc(OCCN5CCCCC5)cc4)cnc23)ccn1 [Dorsomorphin] as the molecule, how does the cell viability read?
The cell viability was 12.7%.

same assay, conditions: drug1 concentration 5 nM; drug2 concentration 5 nM; 72 h

Which cell viability does the source give for O=C(O)CC[N+](=O)[O-] [3-nitropropionic acid] + CCn1c(=Cc2cccc[n+]2CC)sc(=C2Sc3ccccc3N2C)c1=O [MKT 077] here?
Its cell viability is 95.5%.

With CCn1c(=Cc2cccc[n+]2CC)sc(=C2Sc3ccccc3N2C)c1=O [MKT 077] + CN(C)CCNC(=O)c1cccn2c(=O)c3cc4ccccc4cc3nc12 [Bmh-21] as the molecule, how does the cell viability read?
The cell viability was 72.8%.

CN(CCOc1ccc(Cc2sc(O)nc2O)cc1)c1ccccn1 [Rosiglitazone] + CC(C)(Cc1ccccc1)NCC(O)c1ccc(O)c(NS(C)(=O)=O)c1 [Zinterol hydrochloride] was tested. Which cell viability did it give?
The cell viability was 41.2%.

For CN(CCOc1ccc(Cc2sc(O)nc2O)cc1)c1ccccn1 [Rosiglitazone] + c1cc(-c2cnn3cc(-c4ccc(OCCN5CCCCC5)cc4)cnc23)ccn1 [Dorsomorphin], which cell viability is on record?
Its cell viability is 95%.

same assay, conditions: drug1 concentration 5 nM; drug2 concentration 10 nM; 72 h

Which cell viability does the source give for O=C(O)CC[N+](=O)[O-] [3-nitropropionic acid] + CCn1c(=Cc2cccc[n+]2CC)sc(=C2Sc3ccccc3N2C)c1=O [MKT 077] here?
The cell viability was over 100%.

CCn1c(=Cc2cccc[n+]2CC)sc(=C2Sc3ccccc3N2C)c1=O [MKT 077] + CN(C)CCNC(=O)c1cccn2c(=O)c3cc4ccccc4cc3nc12 [Bmh-21] was tested. Which cell viability did it give?
The cell viability was 97.1%.

For CN(CCOc1ccc(Cc2sc(O)nc2O)cc1)c1ccccn1 [Rosiglitazone] + CC(C)(Cc1ccccc1)NCC(O)c1ccc(O)c(NS(C)(=O)=O)c1 [Zinterol hydrochloride], which cell viability is on record?
The cell viability was 95.3%.

For CN(CCOc1ccc(Cc2sc(O)nc2O)cc1)c1ccccn1 [Rosiglitazone] + c1cc(-c2cnn3cc(-c4ccc(OCCN5CCCCC5)cc4)cnc23)ccn1 [Dorsomorphin], which cell viability is on record?
Its cell viability is over 100%.

same assay, conditions: drug1 concentration 5 nM; drug2 concentration 50 nM; 72 h

With O=C(O)CC[N+](=O)[O-] [3-nitropropionic acid] + CCn1c(=Cc2cccc[n+]2CC)sc(=C2Sc3ccccc3N2C)c1=O [MKT 077] as the molecule, how does the cell viability read?
Its cell viability is over 100%.

How did the cell viability turn out when CCn1c(=Cc2cccc[n+]2CC)sc(=C2Sc3ccccc3N2C)c1=O [MKT 077] + CN(C)CCNC(=O)c1cccn2c(=O)c3cc4ccccc4cc3nc12 [Bmh-21] was run?
The cell viability was over 100%.

With CN(CCOc1ccc(Cc2sc(O)nc2O)cc1)c1ccccn1 [Rosiglitazone] + CC(C)(Cc1ccccc1)NCC(O)c1ccc(O)c(NS(C)(=O)=O)c1 [Zinterol hydrochloride] as the molecule, how does the cell viability read?
The cell viability was 83%.

How did the cell viability turn out when CN(CCOc1ccc(Cc2sc(O)nc2O)cc1)c1ccccn1 [Rosiglitazone] + c1cc(-c2cnn3cc(-c4ccc(OCCN5CCCCC5)cc4)cnc23)ccn1 [Dorsomorphin] was run?
Its cell viability is over 100%.

same assay, conditions: drug1 concentration 5 nM; drug2 concentration 100 nM; 72 h

With O=C(O)CC[N+](=O)[O-] [3-nitropropionic acid] + CCn1c(=Cc2cccc[n+]2CC)sc(=C2Sc3ccccc3N2C)c1=O [MKT 077] as the molecule, how does the cell viability read?
The cell viability was 91.2%.

CCn1c(=Cc2cccc[n+]2CC)sc(=C2Sc3ccccc3N2C)c1=O [MKT 077] + CN(C)CCNC(=O)c1cccn2c(=O)c3cc4ccccc4cc3nc12 [Bmh-21] was tested. Which cell viability did it give?
The cell viability was over 100%.

Which cell viability does the source give for CN(CCOc1ccc(Cc2sc(O)nc2O)cc1)c1ccccn1 [Rosiglitazone] + CC(C)(Cc1ccccc1)NCC(O)c1ccc(O)c(NS(C)(=O)=O)c1 [Zinterol hydrochloride] here?
The cell viability was 92.2%.

With CN(CCOc1ccc(Cc2sc(O)nc2O)cc1)c1ccccn1 [Rosiglitazone] + c1cc(-c2cnn3cc(-c4ccc(OCCN5CCCCC5)cc4)cnc23)ccn1 [Dorsomorphin] as the molecule, how does the cell viability read?
Its cell viability is over 100%.

same assay, conditions: drug1 concentration 5 nM; drug2 concentration 500 nM; 72 h

How did the cell viability turn out when O=C(O)CC[N+](=O)[O-] [3-nitropropionic acid] + CCn1c(=Cc2cccc[n+]2CC)sc(=C2Sc3ccccc3N2C)c1=O [MKT 077] was run?
Its cell viability is 99.2%.

CCn1c(=Cc2cccc[n+]2CC)sc(=C2Sc3ccccc3N2C)c1=O [MKT 077] + CN(C)CCNC(=O)c1cccn2c(=O)c3cc4ccccc4cc3nc12 [Bmh-21] was tested. Which cell viability did it give?
The cell viability was 58.2%.

With CN(CCOc1ccc(Cc2sc(O)nc2O)cc1)c1ccccn1 [Rosiglitazone] + CC(C)(Cc1ccccc1)NCC(O)c1ccc(O)c(NS(C)(=O)=O)c1 [Zinterol hydrochloride] as the molecule, how does the cell viability read?
Its cell viability is over 100%.

With CN(CCOc1ccc(Cc2sc(O)nc2O)cc1)c1ccccn1 [Rosiglitazone] + c1cc(-c2cnn3cc(-c4ccc(OCCN5CCCCC5)cc4)cnc23)ccn1 [Dorsomorphin] as the molecule, how does the cell viability read?
The cell viability was over 100%.

same assay, conditions: drug1 concentration 5 nM; drug2 concentration 1000 nM; 72 h

With O=C(O)CC[N+](=O)[O-] [3-nitropropionic acid] + CCn1c(=Cc2cccc[n+]2CC)sc(=C2Sc3ccccc3N2C)c1=O [MKT 077] as the molecule, how does the cell viability read?
Its cell viability is over 100%.

CCn1c(=Cc2cccc[n+]2CC)sc(=C2Sc3ccccc3N2C)c1=O [MKT 077] + CN(C)CCNC(=O)c1cccn2c(=O)c3cc4ccccc4cc3nc12 [Bmh-21] was tested. Which cell viability did it give?
Its cell viability is 31.2%.

How did the cell viability turn out when CN(CCOc1ccc(Cc2sc(O)nc2O)cc1)c1ccccn1 [Rosiglitazone] + CC(C)(Cc1ccccc1)NCC(O)c1ccc(O)c(NS(C)(=O)=O)c1 [Zinterol hydrochloride] was run?
The cell viability was over 100%.

How did the cell viability turn out when CN(CCOc1ccc(Cc2sc(O)nc2O)cc1)c1ccccn1 [Rosiglitazone] + c1cc(-c2cnn3cc(-c4ccc(OCCN5CCCCC5)cc4)cnc23)ccn1 [Dorsomorphin] was run?
Its cell viability is over 100%.

same assay, conditions: drug1 concentration 5 nM; drug2 concentration 5000 nM; 72 h

Which cell viability does the source give for O=C(O)CC[N+](=O)[O-] [3-nitropropionic acid] + CCn1c(=Cc2cccc[n+]2CC)sc(=C2Sc3ccccc3N2C)c1=O [MKT 077] here?
Its cell viability is over 100%.

Which cell viability does the source give for CCn1c(=Cc2cccc[n+]2CC)sc(=C2Sc3ccccc3N2C)c1=O [MKT 077] + CN(C)CCNC(=O)c1cccn2c(=O)c3cc4ccccc4cc3nc12 [Bmh-21] here?
Its cell viability is 16.4%.

How did the cell viability turn out when CN(CCOc1ccc(Cc2sc(O)nc2O)cc1)c1ccccn1 [Rosiglitazone] + CC(C)(Cc1ccccc1)NCC(O)c1ccc(O)c(NS(C)(=O)=O)c1 [Zinterol hydrochloride] was run?
Its cell viability is 94.4%.

How did the cell viability turn out when CN(CCOc1ccc(Cc2sc(O)nc2O)cc1)c1ccccn1 [Rosiglitazone] + c1cc(-c2cnn3cc(-c4ccc(OCCN5CCCCC5)cc4)cnc23)ccn1 [Dorsomorphin] was run?
Its cell viability is 33.1%.

same assay, conditions: drug1 concentration 10 nM; drug2 concentration 5 nM; 72 h

With O=C(O)CC[N+](=O)[O-] [3-nitropropionic acid] + CCn1c(=Cc2cccc[n+]2CC)sc(=C2Sc3ccccc3N2C)c1=O [MKT 077] as the molecule, how does the cell viability read?
The cell viability was 92.9%.

For CCn1c(=Cc2cccc[n+]2CC)sc(=C2Sc3ccccc3N2C)c1=O [MKT 077] + CN(C)CCNC(=O)c1cccn2c(=O)c3cc4ccccc4cc3nc12 [Bmh-21], which cell viability is on record?
The cell viability was over 100%.

CN(CCOc1ccc(Cc2sc(O)nc2O)cc1)c1ccccn1 [Rosiglitazone] + CC(C)(Cc1ccccc1)NCC(O)c1ccc(O)c(NS(C)(=O)=O)c1 [Zinterol hydrochloride] was tested. Which cell viability did it give?
Its cell viability is over 100%.

How did the cell viability turn out when CN(CCOc1ccc(Cc2sc(O)nc2O)cc1)c1ccccn1 [Rosiglitazone] + c1cc(-c2cnn3cc(-c4ccc(OCCN5CCCCC5)cc4)cnc23)ccn1 [Dorsomorphin] was run?
Its cell viability is 74%.

same assay, conditions: drug1 concentration 10 nM; drug2 concentration 10 nM; 72 h

For O=C(O)CC[N+](=O)[O-] [3-nitropropionic acid] + CCn1c(=Cc2cccc[n+]2CC)sc(=C2Sc3ccccc3N2C)c1=O [MKT 077], which cell viability is on record?
Its cell viability is over 100%.

Which cell viability does the source give for CCn1c(=Cc2cccc[n+]2CC)sc(=C2Sc3ccccc3N2C)c1=O [MKT 077] + CN(C)CCNC(=O)c1cccn2c(=O)c3cc4ccccc4cc3nc12 [Bmh-21] here?
The cell viability was 92.4%.

For CN(CCOc1ccc(Cc2sc(O)nc2O)cc1)c1ccccn1 [Rosiglitazone] + CC(C)(Cc1ccccc1)NCC(O)c1ccc(O)c(NS(C)(=O)=O)c1 [Zinterol hydrochloride], which cell viability is on record?
Its cell viability is over 100%.
